Test results from PMC10763578 (Cell host & microbe, 2023).

Biological target: CgaA (cytosolic glutathione amidotransferase A; FTN_0435) (Francisella tularensis, UniProt A0Q523)
Details: 10 mM substrate, 1 uM enzyme, 60 min, 300 mM NaCl, 50 mM Tris-Cl pH 8.5, 37 °C

Sequence of CgaA (cytosolic glutathione amidotransferase A; FTN_0435) (A0Q523 1-235): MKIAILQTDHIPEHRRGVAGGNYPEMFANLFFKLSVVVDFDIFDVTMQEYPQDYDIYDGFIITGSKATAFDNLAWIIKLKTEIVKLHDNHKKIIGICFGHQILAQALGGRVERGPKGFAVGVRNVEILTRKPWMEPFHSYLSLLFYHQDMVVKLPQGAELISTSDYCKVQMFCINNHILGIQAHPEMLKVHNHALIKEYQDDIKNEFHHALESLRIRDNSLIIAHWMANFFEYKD

SMILES: NC(=O)CC[C@H](N)C(=O)O [Gln, glutamine]
- glutamate release, coupled colorimetric kit (A450): we detected only a low level of glutamate accumulation following incubation of CgaA with glutamine
